# Assay results: patent publication US20130040937A1, “INHIBITORS FOR TREATING AND PREVENTING HEART FAILURE IN FELINES” (BOEHRINGER INGELHEIM VETMEDICA GMBH, priority 2011, published 2013)
# Where two headings read alike, the source gives them in different places.
# How the values were obtained:
# healthy cats = experiment: Effects on vasomotor tone, myocardial contractility and lusitropy in healthy cats; assay type: in vivo, cat; conditions: therapeutically relevant doses
# Excerpt: “Funny If current inhibitors”, also referred to as “If channel blockers” or “If current inhibitors” herein, relate to If inhibitors including pharmaceutically acceptable salts thereof, which selectively block hyperpolarization-activated cyclic nucleotide-gated channels (HCN) in cardiac conductive tissue, channels responsible for the transmembrane current known as If. It is through blockade of this current that If channel blockers are assumed to produce their specific bradycardic effect. HCN channels are widely distributed in the nervous system and in the eye they mediate the current known as Ih. The effect of zatebradine and cilobradine on the Ih channel has also been investigated (See Neuroscience, Vol. 59(2), pp. 363-373, 1994 for zatebradine, and British Journal of Pharmacology, Vol. 125, pp. 741-750, 1998 for cilobradine). […] Cilobradine in particular reduces the heart rate in the sinoatrial node of the heart by selective blockade of If channels (“funny channels”) through a direct interaction with predominantly HCN4 channels. This blockage is potent and has a dosage and voltage dependency. Because of the high selectivity to the If current, effects on vasomotor tone or myocardial contractility and lusitropy are not observed at therapeutically relevant doses in healthy cats. […]
# [1] = test system: cats suffering from HF due to HCM; experiment: Blinded, controlled, randomised efficacy field study in HCM cats; assay type: in vivo; parameters: key to Right heart enlargement (score): Score 1: normal size; Score 2: mild enlargement; Score 3: moderate enlargement; Score 4: severe enlargement; conditions: HCM cat; for Right heart enlargement (score): X-ray
# Method: A blinded, controlled, randomised, efficacy field study was conducted with HCM cats receiving cilobradine (initial dose: 0.2 mg/kg po. twice daily) or a placebo (dose: 0.0 mg/kg po. twice daily) for 85 days. The dose of cilobradine could be adjusted during the study (dose range 0.1-0.5 mg/kg per-oral twice daily). The administration of furosemide was allowed in both groups. All cats were hospitalised in the first week of the study (study days 1-6), and they were allowed to go home afterwards (study days 7-85).
# Cats with a diagnosis of HCM were included in the study. The diagnosis of HCM was established by using echocardiography showing global, regional or segmental thickness of the interventricular septum and/or left ventricular free-wall in diastole greater than 6 mm. Further inclusion criteria were: systolic blood pressure less than 170 mmHg; serum thyroxine (T4) was normal; and body weight was higher than 2 kg.
# The owner provided a signed informed consent for the animal to enter the study. Cats that suffered from heart disease were scored using a 4 point score adapted from the ISACHC as follows: • Score 1: presence of heart disease associated with no clinical signs but detectable (e,g, auscultation, echocardiography and radiography); • Score 2: clinical signs of heart failure evident and adversely affect the quality of life. Typical signs include dyspnea/tachypnea, pulmonary congestion, weakness/lethargy, anorexia, exercise intolerance; • Score 3: clinical signs of advance heart failure immediately obvious. These clinical signs could have included respiratory distress, marked ascites/pulmonary congestion, profound exercise intolerance or hypoperfusion at rest; and • Score 4: severe cases: subject was moribund, suffered from cardiogenic shock or acute posterior paresis/paralysis. Hospitalization was mandatory.
# Cats having one or more of the following criteria were excluded: • a) The cat had received one or more of the following pretreatments: calcium channel blockers, e.g. diltiazem, angiotensin converting enzyme inhibitors, f3-blockers, acetylsalicylic acid, or digitales glycosides. (Cats pre-treated with furosemide alone were allowed to be included in either of the groups if they matched all inclusion criteria above.) • b) Elevated serum T4 level; • c) Elevated serum blood urea nitrogen (BUN) levels higher than 90 mg/dL or elevated serum creatinine levels higher than 3 mg/dL; • d) Systolic arterial blood pressure greater than or equal to 170 mmHg; • e) Dilated cardiomyopathy (DCM); • f) Suffered from heart disease with a score of 4 (adapted ISACHC score) or with no documented episode of heart failure (score 2 or 3) within 30 days before enrollment; • g) Fixed aortic stenosis; • h) Were pregnant or lactating queens; • i) Were nursing kittens; • j) Body weight less than 2 kg; or • k) Presence of sinus bradycardia (heart rate less than 120 bpm at consultation).
# The cat's quality of life was assessed on a daily basis using the following grading system: 1 (better), 2 (equal), 3 (worse).
# Furthermore, right heart enlargement was assessed by X-ray using the following scoring system: Score 1: normal size; Score 2: mild enlargement; Score 3: moderate enlargement; and Score 4: severe enlargement. Mild enlargement of the right side of the heart was observed using X-ray in the cat receiving a placebo at the end of the study. In contrast, the right side of the heart was normal in the cat receiving cilobradine throughout the study (see Table 10).
# [2] = Pharmacokinetics in healthy human male subjects, once daily po. for 7 days; assay type: in vivo
# Method: (§1) Cilobradine chloride salt was administered at a dose of 5, 10 and 20 mg per subject in the form of capsules. These doses are equal to 0.07, 0.14, and 0.28 mg/kg cilobradine chloride salt assuming a body weight of 70 kg. […] Cilobradine hydrochloride was administered at a dose of 0.1 mg/kg and 0.3 mg/kg as a suspension. […] There are some differences between cats and humans in terms of pharmacokinetics of cilobradine, which might be related to differences in absorption, metabolisation, distribution, or excretion.
# Ih channel = conditions: literature (Neuroscience 1994; Br J Pharmacol 1998); cited from earlier work
# heart rate [3] = experiment: Heart rate after oral administration in humans; assay type: in vivo, human; conditions: over 9 h following administration, 5, 10, 20 mg per subject
# Method: as §1
# [4] = Pharmacokinetics in healthy cats, once daily po. for 4 days; assay type: in vivo; conditions: cat
# Method: as §1
# heart rate [5] = experiment: Pharmacodynamic profile (telemetric heart rate) in the conscious cat; assay type: in vivo
# Method: as §1
# The pharmacodynamic profile of cilobradine hydrochloride was characterised at two dose levels administered by the oral route, once and twice daily, in the conscious cat. The study involved 2 groups of 3 male European Short Hair cats weighing between 4.15 kg and 4.75 kg on the day of the first treatment. Each cat was dosed with cilobradine hydrochloride once (sid) and twice (bid) daily successively at 0.1 or 0.3 mg/kg in a cross over-design. Each treatment was separated by an interval of 24 hours (sid) or 12 hours (bid). A washout period of 7 days was scheduled between the 2 dosing periods. Cats were previously instrumented with telemetric transmitters for heart rate measurements. Telemetric measurements were recorded for 15 seconds every 5 minutes at a sampling rate of 500 Hz on D-2, D-1, from D0 up to D9 and from D16 up to D25 except for D4 and D20 during blood sampling.
# [6] = test system: left atrial systolic and global function; conditions: feline CMP; cited from earlier work
# Lipophilicity profile = assay type: physicochemical; conditions: neutral pH versus acidic pH
# Excerpt: Usually, EC/HPMC films show a sustained release behaviour that is independent of pH. […] This profile, together with the coating applied, may have led to a slower release.
# [7] = test system: healthy cats and cats with hypertrophic cardiomyopathy; conditions: cited from earlier work
smiles,measurement,setting,value
"COc1ccc(CCN2CCC[C@H](CN3CCc4cc(OC)c(OC)cc4CC3=O)C2)cc1OC [Cilobradine, (+)-3-[(N-(2-(3,4-dimethoxy-phenyl)ethyl)-piperidin-3-(S)-yl)-methyl]-(7,8-dimethoxy-1,3,4,5-tetrahydro-2H-3-benzazepin-2-on)]",effects on vasomotor tone or myocardial contractility and lusitropy,healthy cats,not observed
same,reduction of the interventricular septal thickness in systole compared to placebo,[1],considerably greater
same,Interventricular septal thickness in systole,[1]; SD 0 (baseline),11.7 mm
same,Heart rate,"[1]; SD 0 (baseline), initial dose 0.2 mg/kg po. twice daily",152 beats per minutes
same,Heart rate,[1]; SD 7,120 beats per minutes
same,Heart rate,[1]; SD 28,144 beats per minutes
same,Heart rate,[1]; SD 56,124 beats per minutes
same,Heart rate,[1]; SD 84,210 beats per minutes
same,Interventricular septal thickness in systole,[1]; SD 84,7.5 mm
same,Right heart enlargement (score),[1]; SD 0 (baseline),1
same,Right heart enlargement (score),[1]; SD 84,1
same,quality of life,"[1]; daily owner grading 1 (better), 2 (equal), 3 (worse), FIG. 1",almost continuous improvement
same,heart rate (in words),"[1]; study period, versus placebo cat",reduced throughout the study
same,right side of the heart (X-ray),[1]; throughout the study,normal
same,Half-life,"[2]; in vivo, healthy human male subjects, once daily po. for 7 days, 5-20 mg per subject, read-out: half-life",10.1 to 13.9 h
same,block of Ih,Ih channel,can also be blocked
same,heart rate reduction,heart rate [3],dose dependent heart rate reduction
same,Half-life,"[4]; in vivo, healthy cats, once daily po. for 4 days, 0.1 and 0.3 mg/kg, read-out: half-life",2.53 to 3.52 h
same,heart rate reduction,"heart rate [5]; cats, over 9 h following administration, 0.1 and 0.3 mg/kg",dose dependent heart rate reduction
CC(C)NCC(O)COc1ccc(CC(N)=O)cc1 (stereo not shown) [atenolol],left atrial systolic and global function,[6],significantly decreased
COc1ccc(CCN2CCC[C@H](CN3CCc4cc(OC)c(OC)cc4CC3=O)C2)cc1OC.Cl [cilobradine hydrochloride],Half-life,"[2]; human, 5 mg/subject (0.07 mg/kg), capsules, once daily po. 7 days",13.9 h
same,Half-life,"[2]; human, 10 mg/subject (0.14 mg/kg), capsules, once daily po. 7 days",13.0 h
same,Half-life,"[2]; human, 20 mg/subject (0.28 mg/kg), capsules, once daily po. 7 days",10.1 h
same,lipophilicity profile,Lipophilicity profile,slightly more lipophilic at neutral pH values
same,Half-life,"[4]; 0.1 mg/kg, suspension, once daily po. 4 days",3.52 h
same,Half-life,"[4]; 0.3 mg/kg, suspension, once daily po. 4 days",2.53 h
same,bradycardia,"heart rate [5]; conscious cat, oral 0.1 and 0.3 mg/kg per day, sid and bid",dose-dependent bradycardia
"COc1cc2c(cc1OC)CC(=O)N(CCCN(C)C[C@H]1Cc3cc(OC)c(OC)cc31)CC2 [ivabradine, 3-[3-[[[(7S)-3,4-dimethoxybicyclo[4.2.0]octa-1,3,5-trien-7-yl]methyl]methylamino]propyl]-1,3,4,5-tetrahydro-7,8-dimethoxy-2H-3-benzazepin-2-one]",heart rate reduction,[7]; healthy cats,significant heart rate reduction
same,"negative chronotropic effect, dose relation",[7]; healthy cats,dose-dependency
same,heart rate reduction,[7]; subclinical HCM cats,significant heart rate reduction
"COc1ccc(CCN(C)CCCN2CCc3cc(OC)c(OC)cc3CC2=O)cc1OC [zatebradine, reference compound]",block of Ih,Ih channel,can also be blocked
